Reference: patent US20070128217A1 (priority 2003, published 2007)

What was measured:
[1] = tested on: antibodies in sera from SARS patients (sera 1a, 1b, 2, 6, 37, 62, London, SARS-yellow, SARS-green); format: binding, human; design: Binding of serum 6 to linear peptides of protein X1 of SARS-CoV Urbani / Binding of serum 37 to linear peptides of protein X1 of SARS-CoV Urbani / Binding of serum 6 to looped/cyclic peptide (PEPSCAN-ELISA) / Binding of serum 37 to looped/cyclic peptide (PEPSCAN-ELISA) / Binding of serum 37 to looped/cyclic peptides of protein X1 of SARS-CoV Urbani / Binding of serum 6 to linear peptides of protein X2 / Binding of serum 37 to linear peptides of protein X2 / Binding of serum 37 to looped/cyclic peptides of protein X2 of SARS-CoV Urbani / Binding of serum 6 to linear peptides of protein M of SARS-CoV Urbani / Binding of serum 37 to linear peptides of protein M of SARS-CoV Urbani / Binding of serum 6 to looped/cyclic peptides of protein M of SARS-CoV Urbani / Binding of serum 37 to looped/cyclic peptides of protein M of SARS-CoV Urbani / Binding of serum 6 to linear peptides of protein X3 of SARS-CoV Urbani / Binding of serum 37 to linear peptides of protein X3 of SARS-CoV Urbani / Binding of serum 37 to looped/cyclic peptides of protein X3 of SARS-CoV Urbani / Binding of serum 6 to linear peptides of protein X4 of SARS-CoV Urbani / Binding of serum 37 to linear peptides of protein X4 of SARS-CoV Urbani / Binding of serum 37 to looped/cyclic peptides of protein X4 of SARS-CoV Urbani / Binding of serum 6 to linear peptides of protein X5 of SARS-CoV Urbani / Binding of serum 37 to linear peptides of protein X5 of SARS-CoV Urbani / Binding of serum 37 to looped/cyclic peptides of protein X5 of SARS-CoV Urbani / Binding of serum 6 to linear peptides of protein N of SARS-CoV Urbani / Binding of serum 37 to linear peptides of protein N of SARS-CoV Urbani / Binding of serum 6 to linear peptide (PEPSCAN-ELISA) / Binding of serum 1a to looped/cyclic peptides of protein N of SARS-CoV Urbani / Binding of serum 1b to looped/cyclic peptides of protein N of SARS-CoV Urbani / Binding of serum 2 to looped/cyclic peptides of protein N of SARS-CoV Urbani / Binding of serum 6 to looped/cyclic peptides of protein N of SARS-CoV Urbani / Binding of serum 37 to looped/cyclic peptides of protein N of SARS-CoV Urbani / Binding of serum 62 to looped/cyclic peptides of protein N of SARS-CoV Urbani / Binding of serum London to looped/cyclic peptides of protein N of SARS-CoV Urbani / Binding of serum SARS-green to looped/cyclic peptides of protein N of SARS-CoV Urbani: unit not given here
[2] = tested on: control sera (pooled serum of ten healthy LUMC hospital workers; commercial negative donor pooled serum from the Dutch bloodbank); format: binding, human; design: Binding of Control serum LUMC to linear peptides / Binding of Control serum Blood-bank to linear peptides / Binding of Control serum LUMC to looped peptides / Binding of Control Serum Blood-Bank to Looped peptides / Binding of Control serum LUMC to linear peptides of the protein M of SARS-CoV Urbani / Binding of Control serum Blood-bank to linear peptides of the protein M of SARS-CoV Urbani / Binding of Control serum LUMC to looped peptides of the protein M of SARS-CoV Urbani / Binding of Control Serum Blood-Bank to Looped peptides of the protein M of SARS-CoV Urbani: unit not given here
[3] = tested on: rabbit serum obtained by immunizing a rabbit with the SARS-CoV strain Frankfurt 1; format: binding; design: Binding of a rabbit serum to linear peptides / Binding of a rabbit serum to looped peptides / Rabbit serum linear peptides / Rabbit serum looped peptides / Binding of a rabbit serum to linear peptides of protein N of SARS-CoV Urbani (Rabbit serum linear peptides) / Binding of a rabbit serum to looped/cyclic peptides of protein N of SARS-CoV Urbani (Rabbit serum looped peptides): unit not given here

For YQLRARSVSPKLFIR, the “Binding of serum 1a to linear peptides of protein X4 of SARS-CoV Urbani” value [1] was 0.7, the “Binding of serum 1a to looped/cyclic peptides of protein X4 of SARS-CoV Urbani” value [1] was 0.7 and the “Binding of serum 1b to linear peptides of protein X4 of SARS-CoV Urbani” value [1] was 0.6. The “Binding of serum 1b to looped/cyclic peptides of protein X4 of SARS-CoV Urbani” value [1] was 0.4, the “Binding of serum 2 to linear peptides of protein X4 of SARS-CoV Urbani” value [1] was 0.6 and the “Binding of serum 2 to looped/cyclic peptides of protein X4 of SARS-CoV Urbani” value [1] was 0.6. For the same sequence, the “Binding of serum 6 to linear peptides of protein X4 of SARS-CoV Urbani” value [1] was 0.7, the “Binding of serum 6 to looped/cyclic peptides of protein X4 of SARS-CoV Urbani” value [1] was 1.2 and the “Binding of serum 37 to linear peptides of protein X4 of SARS-CoV Urbani” value [1] was 0.8. For the same sequence, the “Binding of serum 37 to looped/cyclic peptides of protein X4 of SARS-CoV Urbani” value [1] was 0.7, the “Binding of serum 62 to linear peptides of protein X4 of SARS-CoV Urbani” value [1] was 0.7 and the “Binding of serum 62 to looped/cyclic peptides of protein X4 of SARS-CoV Urbani” value [1] was 0.6. For the same sequence, the “Binding of serum London to linear peptides of protein X4 of SARS-CoV Urbani” value [1] was 0.8, the “Binding of serum London to looped/cyclic peptides of protein X4 of SARS-CoV Urbani” value [1] was 1.4 and the “Binding of serum SARS-green to linear peptides of protein X4 of SARS-CoV Urbani” value [1] was 0.7. For the same sequence, the “Binding of serum SARS-green to looped/cyclic peptides of protein X4 of SARS-CoV Urbani” value [1] was 0.4, the “Binding of serum SARS-yellow to linear peptides of protein X4 of SARS-CoV Urbani” value [1] was 0.6 and the “Binding of serum SARS-yellow to looped/cyclic peptides of protein X4 of SARS-CoV Urbani” value [1] was 0.9. For the same sequence, the “Binding of Control Serum Blood-Bank to Looped peptides” value [2] was 0.7, the “Binding of Control serum Blood-bank to linear peptides” value [2] was 0.6 and the “Binding of Control serum LUMC to linear peptides” value [2] was 0.6. For the same sequence, the “Binding of Control serum LUMC to looped peptides” value [2] was 0.7 and the “Recognition of the peptide by the rabbit serum” value [3] was “recognized”.
YSPLFLIVAALVFLI was tested, and the “Binding of serum 1a to linear peptides of protein X4 of SARS-CoV Urbani” value [1] was 0.7, the “Binding of serum 1a to looped/cyclic peptides of protein X4 of SARS-CoV Urbani” value [1] was 0.7 and the “Binding of serum 1b to linear peptides of protein X4 of SARS-CoV Urbani” value [1] was 0.3. The “Binding of serum 1b to looped/cyclic peptides of protein X4 of SARS-CoV Urbani” value [1] was 0.3, the “Binding of serum 2 to linear peptides of protein X4 of SARS-CoV Urbani” value [1] was 0.5 and the “Binding of serum 2 to looped/cyclic peptides of protein X4 of SARS-CoV Urbani” value [1] was 0.6. The “Binding of serum 6 to linear peptides of protein X4 of SARS-CoV Urbani” value [1] was 0.5, the “Binding of serum 6 to looped/cyclic peptides of protein X4 of SARS-CoV Urbani” value [1] was 0.4 and the “Binding of serum 37 to linear peptides of protein X4 of SARS-CoV Urbani” value [1] was 0.7. The “Binding of serum 37 to looped/cyclic peptides of protein X4 of SARS-CoV Urbani” value [1] was 0.6, the “Binding of serum 62 to linear peptides of protein X4 of SARS-CoV Urbani” value [1] was 0.7 and the “Binding of serum 62 to looped/cyclic peptides of protein X4 of SARS-CoV Urbani” value [1] was 0.6. The “Binding of serum London to linear peptides of protein X4 of SARS-CoV Urbani” value [1] was 0.7, the “Binding of serum London to looped/cyclic peptides of protein X4 of SARS-CoV Urbani” value [1] was 0.3 and the “Binding of serum SARS-green to linear peptides of protein X4 of SARS-CoV Urbani” value [1] was 0.5. The “Binding of serum SARS-green to looped/cyclic peptides of protein X4 of SARS-CoV Urbani” value [1] was 0.6, the “Binding of serum SARS-yellow to linear peptides of protein X4 of SARS-CoV Urbani” value [1] was 0.4 and the “Binding of serum SARS-yellow to looped/cyclic peptides of protein X4 of SARS-CoV Urbani” value [1] was 0.4. The “Binding of Control Serum Blood-Bank to Looped peptides” value [2] was 0.4, the “Binding of Control serum Blood-bank to linear peptides” value [2] was 0.6 and the “Binding of Control serum LUMC to linear peptides” value [2] was 0.5. For the same sequence, the “Binding of Control serum LUMC to looped peptides” value [2] was 0.7, the “Rabbit serum linear peptides” value [3] was 0.3 and the “Rabbit serum looped peptides” value [3] was 0.5.
With YTQSTALQELLIQQW the “Binding of serum 1a to linear peptides of protein X2” value [1] was 0.6, the “Binding of serum 1a to looped/cyclic peptides of protein X2 of SARS-CoV Urbani” value [1] was 0.6 and the “Binding of serum 1b to linear peptides of protein X2” value [1] was 0.5. The “Binding of serum 1b to looped/cyclic peptides of protein X2 of SARS-CoV Urbani” value [1] was 0.5, the “Binding of serum 2 to linear peptides of protein X2” value [1] was 0.4 and the “Binding of serum 2 to looped/cyclic peptides of protein X2 of SARS-CoV Urbani” value [1] was 0.5. For the same sequence, the “Binding of serum 6 to linear peptides of protein X2” value [1] was 0.4, the “Binding of serum 6 to looped/cyclic peptides of protein X2 of SARS-CoV Urbani” value [1] was 0.2 and the “Binding of serum 37 to linear peptides of protein X2” value [1] was 0.5. For the same sequence, the “Binding of serum 37 to looped/cyclic peptides of protein X2 of SARS-CoV Urbani” value [1] was 0.4, the “Binding of serum 62 to linear peptides of protein X2” value [1] was 0.6 and the “Binding of serum 62 to looped/cyclic peptides of protein X2 of SARS-CoV Urbani” value [1] was 0.6. The “Binding of serum London to linear peptides of protein X2” value [1] was 0.5, the “Binding of serum London to looped/cyclic peptides of protein X2 of SARS-CoV Urbani” value [1] was 0.2 and the “Binding of serum SARS-green to linear peptides of protein X2” value [1] was 0.6. For the same sequence, the “Binding of serum SARS-green to looped/cyclic peptides of protein X2 of SARS-CoV Urbani” value [1] was 0.3, the “Binding of serum SARS-yellow to linear peptides of protein X2” value [1] was 0.6 and the “Binding of serum SARS-yellow to looped/cyclic peptides of protein X2 of SARS-CoV Urbani” value [1] was 0.3. For the same sequence, the “Binding of Control Serum Blood-Bank to Looped peptides” value [2] was 0.6, the “Binding of Control serum Blood-bank to linear peptides” value [2] was 0.5 and the “Binding of Control serum LUMC to linear peptides” value [2] was 0.4. For the same sequence, the “Binding of Control serum LUMC to looped peptides” value [2] was 0.6, the “Binding of a rabbit serum to linear peptides” value [3] was 0.3 and the “Binding of a rabbit serum to looped peptides” value [3] was 0.3.
For YVVVHGYFTEVYYQL, the “Binding of serum 1a to linear peptides of protein X1 of SARS-CoV Urbani” value [1] was 0.7, the “Binding of serum 1a to looped/cyclic peptides of protein X1 of SARS-CoV Urbani” value [1] was 0.6 and the “Binding of serum 1b to linear peptides of protein X1 of SARS-CoV Urbani” value [1] was 0.6. The “Binding of serum 1b to looped/cyclic peptides of protein X1 of SARS-CoV Urbani” value [1] was 0.5, the “Binding of serum 2 to linear peptides of protein X1 of SARS-CoV Urbani” value [1] was 0.5 and the “Binding of serum 2 to looped/cyclic peptides of protein X1 of SARS-CoV Urbani” value [1] was 0.5. For the same sequence, the “Binding of serum 6 to linear peptides of protein X1 of SARS-CoV Urbani” value [1] was 0.3, the “Binding of serum 6 to looped/cyclic peptides of protein X1 of SARS-CoV Urbani” value [1] was 0.3 and the “Binding of serum 37 to linear peptides of protein X1 of SARS-CoV Urbani” value [1] was 0.5. The “Binding of serum 37 to looped/cyclic peptides of protein X1 of SARS-CoV Urbani” value [1] was 0.4, the “Binding of serum 62 to linear peptides of protein X1 of SARS-CoV Urbani” value [1] was 0.4 and the “Binding of serum 62 to looped/cyclic peptides of protein X1 of SARS-CoV Urbani” value [1] was 0.4. For the same sequence, the “Binding of serum London to linear peptides of protein X1 of SARS-CoV Urbani” value [1] was 0.2, the “Binding of serum London to looped/cyclic peptides of protein X1 of SARS-CoV Urbani” value [1] was 0.2 and the “Binding of serum SARS-green to linear peptides of protein X1 of SARS-CoV Urbani” value [1] was 0.1. For the same sequence, the “Binding of serum SARS-green to looped/cyclic peptides of protein X1 of SARS-CoV Urbani” value [1] was 0.2, the “Binding of serum SARS-yellow to linear peptides of protein X1 of SARS-CoV Urbani” value [1] was 0.2 and the “Binding of serum SARS-yellow to looped/cyclic peptides of protein X1 of SARS-CoV Urbani” value [1] was 0.4. For the same sequence, the “Binding of Control Serum Blood-Bank to Looped peptides” value [2] was 0.5, the “Binding of Control serum Blood-bank to linear peptides” value [2] was 0.4 and the “Binding of Control serum LUMC to linear peptides” value [2] was 1.0. For the same sequence, the “Binding of Control serum LUMC to looped peptides” value [2] was 0.9, the “Binding of a rabbit serum to linear peptides” value [3] was 0.1 and the “Binding of a rabbit serum to looped peptides” value [3] was 0.5.
